Tests used:
[1] = tested on: cancer cells (PC3, MIA-PaCa2, A549, HCT116) and normal cells (hVSMC, BR5); test: Cell viability of cancer and normal cells; format: cell-based, human; conditions: conventional chemotherapeutics, comparison
HPDE6 = test: MTT cell viability, HPDE6; format: cell-based; conditions: Homo sapiens; normal cells
Experimental: (§1) Cell viability was measured by Thiazolyl Blue Tetrazolium Blue (MTT) colorimetric assay (Sigma). Cell migration and invasion assays were performed in Transwell chambers (Corning) coated with and without Matrigel (BD Bioscience) respectively. 20% FBS and 0.2 ng/ml EGF were used as chemoattractant. 12 h (migration) or 24 h (invasion) after cells were seeded on top of the membrane, penetrating cells were stained with PI and counted under confocal microscope.

[2] = target: HSA (human serum albumin) (Homo sapiens, UniProt P02768); test: Avasimibe binding to HSA: circular dichroism, Trp-214 fluorescence quenching, warfarin competitive binding
Description: A quartz cell of 1 mm path length was used for spectrum measurement (190-260 nm). The spectra were collected with a data pitch of 1 nm, a scan speed of 10 nm per minute, and bandwidth of 1 nm. Each spectrum was the average of three scans.

pancreatic cancer cells [3] = test: Fluorescence imaging of DiI labeled LDL uptake; format: cell-based, human
Experimental: DiI labeled LDL was made following previously described method (de Smidt P C & van Berkel T J C (1990) Cancer Res 50(23):7476-7482.). Cells were cultured in medium containing 10% lipodeficient serum with or without avasimibe treatment for 2 days. Then DiI-LDL was added to the medium at 50 μg/ml for 3 hours. Fluorescence images were acquired immediately after 3 h incubation using confocal microscope. The LDL uptake was quantified using ImageJ by analyzing the area fraction of uptake LDL particles out of the total cellular area.

[4] = Blood bioavailability / pharmacokinetics of avasimibe by LC-MS; format: in vivo, nude mice; conditions: nude, mouse, whole blood; oral avasimibe 15 mg/kg; read-out: area under curve (AUC) of avasimibe
Experimental: To compare the blood-bioavailability of avasimibe for oral and intravenous administrations, avasimibe solution in PBS (15 mg/kg) was orally administered to nude mice without tumors (n=3) using a plastic feeding tube (20 GA×38 mm). Avasimin solution in PBS (75 mg/kg, containing 15 mg/kg avasimibe) was intravenously administered to nude mice without tumor (n=3) through the tail vein. Blood samples (2 μl) were collected from the dorsal pedal vein at different time points post administration. […] To extract avasimibe, acetone (6 μl) was added to the blood solution, vortexed, and then the solution was centrifuged (×5000 g, 5 min). The supernatant (6 μl) was collected and dried under vacuum. The sample was stored at −20° C., and dissolved in 50 μl of methanol just before analysis. A linear standard curve of avasimibe in blood ranging of 0.01-100 μg/ml was created using the same extraction method described above. avasimibe concentration was determined using a liquid chromatography-mass spectroscopy (LC-MS) (Agilent 1200 HPLC-Agilent 6460 QQQ mass spec). […]
Based on this model, pharmacokinetic values for avasimibe delivered by intravenous administration of avasimin were determined including the initial volume of distribution, […]
The terminal and distribution half-times for two-compartment model were measured using the equations above, described in a previous report.

MIA PaCa-2 = test: MTT cell viability, MIA PaCa-2; format: cell-based, human
Experimental: as §1

MIA PaCa-2 cells = test: Annexin V/propidium iodide staining and cell cycle analysis by flow cytometry; format: cell-based, human
PANC-1 = test: MTT cell viability, PANC-1; format: cell-based, human
Experimental: as §1

PC3 cells = test: Cell viability IC50 in PC3 cells; format: cell-based; conditions: Homo sapiens, PC-3
pancreatic cancer cells [5] = test: CE level in pancreatic cancer cells (Raman spectromicroscopy, ESI-MS); format: cell-based, human
Experimental: Label-free Raman spectromicroscopy, including stimulated Raman scattering (SRS) microscopy, coherent anti-stokes Raman scattering (CARS) microscopy and spontaneous Raman spectroscopy, was performed on unstained tissue slices (˜15 μm) or cells without any processing or labeling. SRS imaging was conducted using a femtosecond laser source, with the laser beating frequency tuned to the C-H stretching vibration mode at 2845 cm−1. The typical acquisition time for a 512×512 pixel image was 1.12 second.
CARS imaging and confocal Raman spectral analysis from individual LDs were performed on a single platform as described previously (40). A 5-picosecond laser at 707 nm was used as excitation beam for Raman spectral acquisition. Acquisition time for a typical spectra from individual LDs was 20 s, with the beam power maintained around 15 mW at sample. For each specimen, at least 10 spectra from individual LDs in different locations or cells were obtained.
LD amount was quantified based on the SRS images using software ImageJ. […] Area fraction of LDs out of total area of tissues or cells were measured to quantize the LD amount. […] The percentage of CE out of total lipids was used to quantize the CE level.
Lipids were extracted as described above. Cells with indicated treatments were collected and counted. […]

[6] = tested on: GRP78, ATF4, CHOP in pancreatic cancer cells; test: Immunoblotting of ER stress markers; format: cell-based, human; conditions: time course
Experimental: After indicated treatments, cells were harvested and lysed in AMI lysis buffer (Active Motif) supplemented with protease and phosphatase inhibitor cocktail. Protein concentration was determined using the Bio-Rad protein assay kit. Protein extraction was subjected to immunoblotting with the antibodies against PTEN (Cell Signaling, […]), HMG CoA reductase (Biovision, 3952-100), ACAT-1 (Santa Cruz, sc-69836), GRP78 (Santa Cruz, sc-13968), ATF4 (Cell Signaling, 11815), CHOP (Cell Signaling, 2895), p-ERK1/2 (Cell Signaling, 4370S), ERK1/2 (Cell Signaling, 9102), p-Akt (Cell Signaling, […]), Akt (Cell Signaling, 4691), caveolin-1 (Cell Signaling, […]), SREBP-1 (Santa Cruz, 13551), and β-actin (Sigma, A5441). β-Actin was used as loading control for normalization.

[7] = Tissue distribution of avasimibe by LC-MS, 2 hr post administration; format: in vivo, PC3 tumor xenograft nude mice; conditions: oral avasimibe 15 mg/kg
Experimental: To measure the bioavailability of avasimibe in tissues, avasimin solution in PBS (75 mg/kg, containing 15 mg/kg avasimibe) was intravenously administered to PC3 tumor xenograft nude mice (n=3) through the tail vein. avasimibe solution in PBS (15 mg/kg) was also orally administered to PC3 tumor xenograft nude mice (n=3). At 2 hr-post injection, the mice were sacrificed, and the tissues and urine were harvested and weighed. After adding PBS (100 μl per […] tissue), the tissues were homogenized using a bead based homogenizer (Precellys®24, bertin technologies). Avasimibe was extracted from the homogenized tissue solution according to the same procedure used in avasimibe extraction from blood sample. Avasimibe in the tissue, urine, and feces specimens was quantified by LC-MS using the same conditions as the blood-bioavailability study. The amounts of avasimibe were quantitatively determined based on the calibration curve of avasimibe in blood.

[8] = tested on: MIA PaCa-2 orthotopic tumors; test: Orthotopic mouse model of pancreatic cancer (MIA PaCa-2 luc/mCherry); format: in vivo
Experimental: In vivo study in orthotopic mouse model: All animal experiments were conducted following protocols approved by Purdue Animal Care and Use Committee (PACUC). NOD/scid/IL2R γ null (NSG) mice were purchased from In Vivo Therapeutics Core at Indiana University Simon Cancer Center (Indiana University, IN) under a Material Transfer Agreement with Jackson Laboratories, Inc. Orthotopic mouse model of pancreatic cancer was established following previously described protocol (Gu D, et al. (2013) Mol Cancer Ther 12(6):1038-1048.). MIA PaCa-2 cells with stable expression of luciferase and mCherry were collected and suspended at a concentration of 10×10^6 cells/ml. A total of 5×10^5 tumor cells in 50 μl medium was directly injected into the pancreas of NSG mice at 4-6 weeks old. After recovery from surgery, tumor growth was monitored by bioluminescent imaging using In Vivo Imaging System (IVIS).
In these studies, mice were randomly divided into two groups. For the treatment with avasimibe at 15 mg/kg, intraperitoneal (IP) injection was used on a daily base, starting one week after tumor cell implantation. After treated for 4 weeks, all the mice were sacrificed. Tumors and metastatic lesions in abdominal cavity, lymph nodes, liver, spleen, kidney, lung and heat were visualized with IVIS by mCherry fluorescent signal. Tumor volume and weight were measured ex vivo. Histological examination was performed to tumor and organ tissue slides after stained with Hematoxylin and eosin (H&E).
Murine paraffin-embedded slides were deparaffinized and rehydrated. Then antigens were retrieved in antigen unmasking solution (Vector Laboratories) with a 2100-Retriever (PickCell Laboratories). Samples were used to TUNEL assay (Roche, 11684817910) according to manufacturer's protocol. Fluorescent images were taken using Nikon A1R confocal microscopy under 40× objective.

pancreatic cancer cells [9] = test: Biochemical assay of free cholesterol in cells; format: cell-based, human; conditions: low to high concentration
Experimental: Lipid extraction from cell pellets and tissues was performed according to Folch et al (Folch J et al. (1957) J Biol Chem 226(1):497-509.). Cells with indicated treatments were collected and counted. CE and free cholesterol were measured according to the manufacturer's protocol (Amplex Red Cholesterol kit from Molecular Probes), and finally normalized by cell number.

tumors = test: Combination of avasimibe and gemcitabine in mice with tumors; format: in vivo; conditions: molar ratio about 5:1 to about 15:1 avasimibe to gemcitabine
MIA PaCa-2 cell = test: Transwell cell migration and invasion assays; format: cell-based, human
Experimental: as §1

[10] = 15 mg/kg per day intraperitoneally, 4 weeks

Sequence of HSA (human serum albumin) (P02768 25-609): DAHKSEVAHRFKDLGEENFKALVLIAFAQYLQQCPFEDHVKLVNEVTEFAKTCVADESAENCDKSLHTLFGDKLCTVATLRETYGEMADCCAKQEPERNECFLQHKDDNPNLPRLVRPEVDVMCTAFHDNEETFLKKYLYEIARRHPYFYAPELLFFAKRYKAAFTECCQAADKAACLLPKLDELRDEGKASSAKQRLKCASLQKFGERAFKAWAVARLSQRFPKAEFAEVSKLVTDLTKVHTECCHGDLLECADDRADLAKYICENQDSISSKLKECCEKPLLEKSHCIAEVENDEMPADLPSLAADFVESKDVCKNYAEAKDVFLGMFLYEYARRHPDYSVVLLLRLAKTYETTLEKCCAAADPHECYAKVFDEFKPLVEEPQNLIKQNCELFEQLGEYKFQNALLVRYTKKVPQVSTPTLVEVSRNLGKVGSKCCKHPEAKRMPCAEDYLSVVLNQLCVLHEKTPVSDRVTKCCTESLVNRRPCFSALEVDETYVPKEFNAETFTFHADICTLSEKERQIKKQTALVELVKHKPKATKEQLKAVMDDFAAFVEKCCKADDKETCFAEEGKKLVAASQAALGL

For `Nc1ccn([C@@H]2O[C@H](CO)[C@@H](O)C2(F)F)c(=O)n1` [gemcitabine], the “selectivity of cytotoxic effect” value [1] was “non-selective cytotoxic effects”.
For `CC(C)c1cc(C(C)C)c(CC(=O)NS(=O)(=O)Oc2c(C(C)C)cccc2C(C)C)c(C(C)C)c1` [avasimibe], the IC50 (HPDE6) was 52.8 µM, the “replacement of warfarin at the primary binding site of HSA” value ([2]; avasimibe:HSA 16:1, warfarin:HSA 10:1) was “complete replacement of warfarin” and the “binding affinity to HSA, compared with warfarin” value ([2]; inferred from complete replacement of warfarin) was greater than 189000 M⁻¹. For the same compound, the “uptake of DiI labeled LDL” value (pancreatic cancer cells [3]) was “significantly reduced uptake of LDL”, the AUC [4] was 3.25 µg·h/mL and the “proliferation rate of MIA PaCa-2 cells” value (MIA PaCa-2; 10 μM) was “significantly reduced the proliferation rate”. For the same compound, the IC50 (MIA PaCa-2; Homo sapiens, MIA PaCa-2) was 11 µM, the “number of apoptotic cells” value (MIA PaCa-2 cells) was “largely increased” and the “proliferation rate of PANC-1 cells” value (PANC-1; 10 μM) was “significantly reduced the proliferation rate”. The IC50 (PANC-1; Homo sapiens, PANC-1) was 23.6 µM, the IC50 (PC3 cells) was 17 µM and the “CE level in pancreatic cancer cells” value (pancreatic cancer cells [5]) was “effectively removed CE”. For the same compound, the ATF4 level [6] was “increase of transcription factor ATF4 within 12 hours”, the CHOP expression [6] was “appeared after 12 hour treatment and increased from 12 to 48 hour” and the GRP78 expression level [6] was “gradually increased over time”. For the same compound, the “excretion of avasimibe through feces” value [7] was “considerable amount of avasimibe was excreted through the feces”, the “avasimibe in the tumor tissue” value ([7]; 2 hr) was “not detectable” and the “main tissue of avasimibe distribution” value ([7]; 2 hr) was “most avasimibe was found in the liver tissue”. The “CE amount in tumor (SRS imaging and Raman)” value ([8]; 15 mg/kg per day intraperitoneally) was “Reduction of CE amount”, the body weight [8, 10] was “did not induce body weight loss” and the “metastatic lesions in lymph nodes and distant organs” value [8, 10] was “largely suppressed”. For the same compound, the “tumor size, tumor growth rate, tumor volume and weight” value [8, 10] was “significantly suppressed”, the “apoptotic cells in tumor tissues (TUNEL)” value ([8]; mouse, in vivo) was “Increased apoptotic cells” and the “free cholesterol in mouse pancreatic tumor tissues” value ([8]; mouse, in vivo) was “Increased free cholesterol”. The “free cholesterol levels in cells” value (pancreatic cancer cells [9]) was “gradually increased”, the “effect in combination with gemcitabine” value (tumors) was “synergistic effect” and the cell invasion rate (MIA PaCa-2 cell; transwell with Matrigel, 24 h) was “significantly reduced”. For the same compound, the cell migration rate (MIA PaCa-2 cell; transwell, 12 h) was “significantly reduced”.
